“And” between values parts separate entries of the source, which are not always exact repeats. Equal entries are not always repeated. “Also recorded” adds a separate entry of the source.
Tests used:
[1] = system: calcium-activated chloride channels (CaCC); assay: Whole cell patch clamp recording of CaCC-mediated Cl- currents in JME/CF15 cells; type: cell-based
Experimental: Effect on calcium-activated chloride channels (CaCC) was investigated in JME/CF15 cells (see Jefferson et al. “Expression of normal and cystic fibrosis phenotypes by continuous airway epithelial cell lines” Am J. Physiol. (1990) December; 259 (6 Pt 1): L496-505). […] Test compound was Compound 10 ('915/2 in FIGS. 1 and 2) and positive control for CaCC was flufenamic acid (FFA).
JME/CF15 cells were prepared for whole cell patch clamp recordings following standard protocols (as described in Fischer et al. “Basolateral Cl channels in primary airway epithelial cultures” Am J Physiol Lung Cell Mol Physiol. (2007) 292:L1432-L1443, which is incorporated herein by reference in its entirety) while incubated in a bath solution as follows (mM): 140 HCl, 158 N-methyl-D-glucamine (NMDG), 2 CaCl2, 1 MgCl2, 12.5 Hepes, 10 glucose, pH 7.4. To selectively activate calcium-activated chloride channels (CaCC), the pipette solution consisted of (in mM) HCl, 160 N-methyl-D-glucamine (NMDG), 1 MgCl2, 5 Hepes, 1 glucose, 5 MgATP, pH 7.4.
(§1) Conventional whole cell patch clamp recordings were made. Effects of compounds were tested in 2 runs at 1 and 10 μM, respectively, on CaCC. To activate CaCC mediated Cl^− conductances, the pipette solution contained 500 nM CaCl2 without EGTA (in order to allow for agonist induced regulation of CaCC) or a mixture of 1.8 mM CaCl2 and 2 mM EGTA resulting in a free concentration of calcium of 500 nM to maintain a stable intracellular calcium concentration.
(§2) CaCC-mediated Cl^− currents were measured with a pipette solution that contained ˜500 nM free Ca to activate CaCC. […] This is likely a Ca-activated K^+ conductance because i) it generates a large outward current (which rules out a Cl^− conductance), and ii) it is transient (likely because intracellular K^+ is exhausted).

[2] = system: Ca-activated K+ conductance; assay: Whole cell patch clamp in JME/CF15 cells: additional (K+) conductance; type: cell-based
Experimental: as §1, §2
The experimental conditions were not set up to measure a K^+ conductance, i.e., there is no K^+ in the employed solutions, and the measured currents are dependent on the residual K^+ found in cells. […] In an epithelial setting, concurrent block of CaCC and a K^+ conductance may result in weaker blocker efficiency or even in stimulation of secretion.

[3] = system: intestinal loops injected with cholera toxin (CTX); parameters: species or system mice (CD1 strain); details: mouse, in vivo

| SMILES | Block of remaining chloride current after compound 10 ([1]; intracellular calcium unbuffered, 100 μM FFA added after compound 10, FIG. 2) | Activation of a K+ conductance ([2]; Ca-buffered solutions) | Activation of an additional conductance (likely Ca-activated K+ conductance) ([2]; intracellular calcium unbuffered (low EGTA), 10 μM, FIG. 2) | Block of CaCC-mediated Cl- currents ([1]; intracellular calcium stably buffered (with EGTA), ~500 nM free Ca, compound added to bath, runs at 1 and 10 μM, FIG. 1) | Block of CaCC-mediated (remaining) chloride current ([1]; intracellular calcium unbuffered (low EGTA), ~500 nM free Ca, 10 μM, FIG. 2) | Inhibition of CTX-induced fluid secretion (statistical significance) [3] | Mean net fluid secretion (loop weight/loop length) [3] | % Inhibition [3] [%^ψ] |
| --- | --- | --- | --- | --- | --- | --- | --- | --- |
| O=C(O)c1ccccc1Nc1cccc(C(F)(F)F)c1 [FFA, flufenamic acid, reference compound] | blocks only slightly more | – | – | – | – | – | – | – |
| CN(Cc1ccc(Cl)c(Cl)c1)C(=O)c1nnc(-c2cccc(NS(=O)(=O)C(F)(F)F)c2)o1 [Compound 10, N-(3,4-dichlorobenzyl)-N-methyl-5-(3-(trifluoromethylsulfonamido)phenyl)-1,3,4-oxadiazole-2-carboxamide] | – | not in Ca-buffered | transiently activated an additional conductance; also recorded: activation of a Ca-activated K^+ conductance | blocking; also recorded: blocked currents | blocking; also recorded: eventually well blocked | statistically significant inhibition | 0.04996 g/cm and 0.04015 g/cm and 0.07645 g/cm | – |
| O=C(NCc1ccc(Oc2ccccc2)cc1)c1nc(-c2cc(Br)c(O)c(Br)c2)no1 [BF000710032, 3-(3,5-dibromo-4-hydroxyphenyl)-N-(4-phenoxybenzyl)-1,2,4-oxadiazole-5-carboxamide, reference compound] | – | – | – | – | – | statistically significant inhibition | – | 62.69 |

Source: US20110288103A1, “COMPOUNDS, COMPOSITIONS, AND METHODS COMPRISING 1,3,4-OXADIAZOLE DERIVATIVES” (Institute for OneWorld Health, priority 2010, published 2011)
